Results: ChEMBL document CHEMBL1201862, “PubChem BioAssay data set” (2004)
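Growth conditions: 96-well plates. Treatment: test compound, 48 hours, 5 concentrations. Analysis: linear interpolation between bracketing concentrations; unreached endpoints set to highest concentration. Abbreviation: GI50, concentration required for 50% inhibition of growth.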 Activity calls are given as the source filed them. Rule as the data show it: active = GI50 up to about 1.1 µM and inactive = higher. Positions of bridges follow the written chain, without caps; N, C: chain ends. Where a SMILES comes first, the peptide text is derived from it. Non-standard residues stand in square brackets, D forms with d. Residues, ends and D or L forms follow the SMILES beside them. [ ]: non-standard residue; d: D form. ξ: configuration not given here. *: point of attachment. ξThz(5,5-Me2) = CC1(C)SCNC1C(=O)O; Cbz = O=C(OCc1ccccc1)*; Aib = CC(C)(N)C(=O)O; OBn = c1ccc(CO*)cc1; βAla = NCCC(=O)O

Columns and labels:
Assay in all cases: inhibition of tumour cell growth, NCI panel, 48 h
[1] = test system: RPMI-8226
[2] = test system: HCT-15
[3] = test system: SF-295
[4] = test system: NCI/ADR-RES
[5] = test system: EKVX
[6] = test system: Hs-578T
[7] = test system: MOLT-4
[8] = test system: 786-0
[9] = test system: PC-3
[10] = test system: HL-60
[11] = test system: TK-10
[12] = test system: OVCAR-4
[13] = test system: HOP-92
[14] = test system: LOX IMVI
[15] = test system: SR
[16] = test system: NCI-H522
[17] = test system: NCI-H23
[18] = test system: SNB-19
[19] = test system: CAKI-1
[20] = test system: M14

Compound	GI50 [1]	GI50 [2] [µM]	GI50 [3]	GI50 [4]	GI50 [5]	GI50 [6]	GI50 [7]	GI50 [8]	GI50 [9]	GI50 [10]	GI50 [11]	GI50 [12]	GI50 [13]	GI50 [14]	GI50 [15]	GI50 [16]	GI50 [17]	GI50 [18]	GI50 [19]	GI50 [20]
O=C1Nc2ccccc2/C1=N/N1C(=O)/C(=C/c2ccccc2S)N=C1c1ccccc1	12.6 µM (inactive)	83	> 100 µM (inactive)	> 100 µM (inactive)	48.3 µM (inactive)	> 100 µM (inactive)	19.5 µM (inactive)	79.8 µM (inactive)	47.8 µM (inactive)	40.9 µM (inactive)	> 100 µM (inactive)	27 µM (inactive)	77.6 µM (inactive)	44.9 µM (inactive)	21.3 µM (inactive)	40.5 µM (inactive)	57.7 µM (inactive)	> 100 µM (inactive)	91.6 µM (inactive)	> 100 µM (inactive)
CC1(C)NC(=O)C(NC(=O)C(CC(=O)OCc2ccccc2)NC(=O)OCc2ccccc2)CCCCNC(=O)CCNC1=O (stereo not given) (Cbz-D(OBn)K[Aib][βAla]; lactam 2-C; configuration not given here)	> 100 µM (inactive)	> 100	> 100 µM (inactive)	> 100 µM (inactive)	> 100 µM (inactive)	> 100 µM (inactive)	> 100 µM (inactive)	> 100 µM (inactive)	> 100 µM (inactive)	> 100 µM (inactive)	> 100 µM (inactive)	> 100 µM (inactive)	> 100 µM (inactive)	> 100 µM (inactive)	> 10 µM (inactive)	> 100 µM (inactive)	> 100 µM (inactive)	> 100 µM (inactive)	> 100 µM (inactive)	> 100 µM (inactive)
CSCC[C@H](NC(=O)[C@H](CC(C)C)NC(=O)[C@H](Cc1c[nH]cn1)NC(=O)CNC(=O)C1N(C(=O)[C@@H](C)NC(=O)[C@H](Cc2c[nH]c3ccccc23)NC(=O)[C@H](CCC(N)=O)NC(=O)[C@@H](N)CC(N)=O)CSC1(C)C)C(N)=O (stereo not given in full) (H-NQW[dA][ξThz(5,5-Me2)]GHLM-NH2)	> 25 µM (inactive)	> 25	> 25 µM (inactive)	> 25 µM (inactive)	> 25 µM (inactive)	> 25 µM (inactive)	> 25 µM (inactive)	> 25 µM (inactive)	> 25 µM (inactive)	> 25 µM (inactive)	> 25 µM (inactive)	> 25 µM (inactive)	> 25 µM (inactive)	> 25 µM (inactive)	> 25 µM (inactive)	> 25 µM (inactive)	> 25 µM (inactive)	> 25 µM (inactive)	> 25 µM (inactive)	> 25 µM (inactive)
